Results as given in EP4671258A1, “RADIOACTIVE LABEL OF RISEDRONIC ACID DERIVATIVE, AND PRECURSOR COMPOUND THEREOF, AND PREPARATION METHOD THEREFOR AND USE THEREOF” (The Affiliated Hospital of Southwest Medical University, priority 2023, dated 2024).

Tested on: tumor-bearing mice
Assay: Comparative PET/CT imaging experiment in tumor-bearing mice (Test Example 2)
Type: in vivo, nude mice
Settings: PET/CT whole-body imaging 2 hours after tail vein injection of about 0.1 ml (1 mCi/ml); MDA-MB-231 bone metastasis model
Protocol: In this test example, the PET/CT imaging experiment of the ^68Ga-labeled compound represented by Formula II-1 of the present disclosure in tumor-bearing mice was disclosed. • (1) Establishment of tumor-bearing mouse model: 12 SPF female nude mice were prepared. After isoflurane anesthesia, the skin around the left knee joint was disinfected. The left hind limb was bent and an insulin needle (29G needle) was used to insert vertically into the femur from the concave point of the femoral head joint fossa. The needle was slowly rotated into the bone marrow cavity and 25µl (containing about 2×10^6 cells) of MDA-MB-231 (human breast cancer cells, from ATCC) cell culture medium was injected. After disinfection, the hole was sealed with sterile bone wax, and the animal was placed on a 37°C hot plate to rewarm. After recovery, it was returned to the cage for continued feeding. • (2) Verification of tumor-bearing mouse model: 4 weeks after inoculation, 12 nude mice were scanned using Micro-CT respectively.
In this test example, a comparative PET/CT imaging experiment of the ^68Ga-labeled compound represented by Formula II-1 of the present disclosure and ^68Ga-DOTA-ibandronic acid in tumor-bearing mice was disclosed. The ^68Ga-DOTA-ibandronic acid was prepared according to the method No.5 in Table 1 in the description of the published Chinese patent application with application number 202111419244.X.
Four successfully modeled tumor-bearing mice were taken, in which two mice were injected with about 0.1 ml of the freshly prepared ^68Ga-labeled compound represented by Formula II-1 (with a concentration of 1 mCi/ml) via the tail vein, and the other two mice were injected with about 0.1 ml of the freshly prepared ^68Ga-DOTA-ibandronic acid (with a concentration of 1 mCi/ml) via the tail vein. PET/CT whole-body imaging was performed 2 hours after injection.
The T/N value was calculated according to the following formula: T/N value = SUVmax of lesion/SUVmax of background tissue [formula] Table 1: Imaging results of tumor-bearing mice

For ^68Ga-DOTA-ibandronic acid, the “Head SUVmax” value was 0.783, the “Head SUVmin” value was 0.230 and the “Lesion SUVmax” value was 0.647. The “Lesion SUVmin” value was 0.139, the “Liver SUVmax” value was 0.067 and the “Liver SUVmin” value was 0.046.
